According to article PMC9772450, “Gel-forming antagonist provides a lasting effect on CGRP-induced vasodilation” (Frontiers in Pharmacology, 2022):
Non-standard residues stand in square brackets, D forms with d. Residues, ends and D or L forms follow the SMILES beside them. *: point of attachment. Arg(Me) = CNC(=N)NCCC[C@H](N)C(=O)O; Palmitoyl = CCCCCCCCCCCCCCCC(=O)*; Hyp = O=C(O)[C@@H]1C[C@@H](O)CN1; Cit = NC(=O)NCCC[C@H](N)C(=O)O; Orn = NCCC[C@H](N)C(=O)O; Dab = NCC[C@H](N)C(=O)O; Abu = CC[C@H](N)C(=O)O; Aib = CC(C)(N)C(=O)O; Ahx = NCCCCCC(=O)O; βAla = NCCC(=O)O

Legend:
[1] = Visual (tube-tapping) assay of gel-forming capability and solubility; type: physicochemical; parameters: key to Gel-forming ability: Y: can form a liquid gel; N: lacks the ability to efficiently form a liquid gel; details: visual inspection of 11% peptide solutions, tube-tapping, 20 min after mixing
Description: To evaluate the ability of peptides to form gels in situ, we initially determined this tendency qualitatively based on visual examinations of peptide solutions using a tube-tapping method. In addition, we quantitatively determined the viscosity of select peptide solutions using a viscometer (Rheosense Inc; http://www.rheosense.com/products/viscometers) ([Yan and Pochan, 2010]). In the visual assay, aliquots of peptides were dissolved in an aqueous solution (i.e., de-ionized water, saline, or 5% glucose solution). The peptide that dissolved instantly and stayed as a clear solution without obvious macroscopic change in viscosity at 20 min after mixing was considered soluble. If macroscopic particles of peptides remained in the solution at 20 min after mixing, the peptide was considered insoluble.

CLR/RAMP1 receptor = target: T1, CLR/RAMP1 receptor (Homo sapiens, UniProt O60894+Q16602); assay: HitHunter cAMP XS+ CALCRL-RAMP1 cAMP assay, antagonist mode; type: cell-based
T1 construct: host or cells: CHO-K1 (cAMP Hunter cell line)
Description: The assay of the antagonistic activity of analogs was conducted by the Eurofins Discoverx using the HitHunter cAMP XS + assay as described earlier ([Bradley and McLoughlin, 2009]; [Chang and Hsu, 2019]). The dose-dependent inhibitory effect of antagonists was studied in duplicate, at 10 different concentrations. Determination of the half-maximal inhibitory concentration (IC50) was performed using a 10-point dose-response curve. The starting concentration was 10 μM, and it was serially diluted 3-fold, in DMSO. […] Using the Hit Hunter® assay (CALCRL-RAMP1 cAMP assay in the antagonist mode; https://www.discoverx.com/products/cell-line/cho-k1-calcrl-ramp1-gs-cell-line-95-0164c2), the eight compounds in Table 1 were assayed side-by-side once, and the IC50 was derived based on the standard assay of duplicate samples of a ten-point curve. In this homogenous, non-imaging assay, the activation of CLR/RAMP1 signaling was evaluated using the Enzyme Fragment Complementation (EFC) technology with β-galactosidase (β-Gal) as the functional reporter. The enzyme was split into two complementary portions: an enzyme acceptor and an enzyme donor. The enzyme donor is fused to cAMP and it competes with cAMP generated by cells
For binding to a cAMP-specific antibody. Active β-Gal is formed by complementation of exogenous enzyme acceptor to any unbound enzyme donor-cAMP. The active enzyme then converted a chemiluminescent substrate to generate a signal. Briefly, cAMP Hunter cell lines with the select receptor were expanded from freezer stocks ([Bradley and McLoughlin, 2009]), and cells were seeded in a total volume of 20 μL into 384-well microplates and incubated at 37°C for the appropriate time. […] Intermediate dilution of samples was performed to generate 4X sample in the assay buffer. Before the assay, media was aspirated from cells and replaced with 10 μL 1:1 HBSS/Hepes:cAMP XS + Ab reagent, and 5 μL of 4X compound was added to the cells and incubated for 30 min. […] Vehicle concentration was 1%.
The chemiluminescent signal was read with a PerkinElmer chemiluminescent plate reader. The compound activity was analyzed using a CBIS data analysis suite (ChemInnovation, CA). The percentage inhibition was calculated using the following formula: % Inhibition = 100% x (1 - (mean RLU of test sample - mean RLU of vehicle control)/(mean RLU of EC80 control - mean RLU of vehicle control)). Data were normalized to the maximal and minimal response observed in the presence of EC80 agonist and vehicle.

T1 sequence (Q16602 23-461): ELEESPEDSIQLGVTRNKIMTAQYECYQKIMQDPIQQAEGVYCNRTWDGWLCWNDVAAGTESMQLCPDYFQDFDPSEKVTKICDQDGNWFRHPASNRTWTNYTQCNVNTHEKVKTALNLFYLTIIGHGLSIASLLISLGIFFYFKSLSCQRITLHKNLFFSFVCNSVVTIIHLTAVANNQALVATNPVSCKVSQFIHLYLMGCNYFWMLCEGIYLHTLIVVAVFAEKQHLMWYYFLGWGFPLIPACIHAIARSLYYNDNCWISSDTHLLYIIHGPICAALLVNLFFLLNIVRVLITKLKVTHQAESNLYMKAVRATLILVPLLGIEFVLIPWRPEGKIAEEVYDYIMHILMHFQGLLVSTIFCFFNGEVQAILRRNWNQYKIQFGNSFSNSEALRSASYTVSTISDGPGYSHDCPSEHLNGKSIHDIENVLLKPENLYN
T1 sequence (O60894 27-148): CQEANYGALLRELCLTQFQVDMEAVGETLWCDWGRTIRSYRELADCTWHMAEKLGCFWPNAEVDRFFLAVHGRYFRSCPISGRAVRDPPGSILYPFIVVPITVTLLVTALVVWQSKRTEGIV

Row | SMILES | Gel-forming ability [1] | Antagonistic activity toward CGRP-mediated CLR/RAMP1 signaling compared to ADE651 (CLR/RAMP1 receptor; result in words) | Maximum response (CLR/RAMP1 receptor; antagonist mode, β-CGRP at EC80, 10-point curve, duplicate)
1 | CCCCCCCCCCCCCCCC(=O)N[C@@H](CCCCN)C(=O)N[C@H](C(=O)N[C@@H](CCC(N)=O)C(=O)N[C@@H](CCCNC(=N)NC)C(=O)N[C@@H](CC(C)C)C(=O)N[C@@H](CO)C(=O)N[C@@H](C)C(=O)N1CCC[C@H]1C(=O)N[C@H](C(=O)N[C@@H](CC(=O)O)C(=O)N1CCC[C@H]1C(=O)N[C@@H](CO)C(=O)N[C@@H](CO)C(=O)N1CCC[C@H]1C(=O)N[C@@H](Cc1c[nH]cn1)C(=O)N[C@@H](CO)C(=O)N[C@@H](Cc1ccc(O)cc1)C(N)=O)C(C)C)C(C)C [ADE651M] (Palmitoyl-KVQ[Arg(Me)]LSAPVDPSSPHSY-NH2) | Y | retained the potent antagonistic activity | –
2 | CCCCCCCCCCCCCCCC(=O)N[C@@H](CCCCN)C(=O)N[C@H](C(=O)N[C@@H](CCC(N)=O)C(=O)N[C@@H](CCCCN)C(=O)N[C@@H](CC)C(=O)N[C@@H](CO)C(=O)N[C@@H](C)C(=O)N1CCC[C@H]1C(=O)N[C@H](C(=O)N[C@@H](CC(=O)O)C(=O)N1CCC[C@H]1C(=O)N[C@@H](CO)C(=O)N[C@@H](CO)C(=O)N1CCC[C@H]1C(=O)N[C@@H](Cc1c[nH]cn1)C(=O)N[C@@H](CO)C(=O)N[C@@H](Cc1ccc(O)cc1)C(N)=O)C(C)C)C(C)C [ADE651I] (Palmitoyl-KVQK[Abu]SAPVDPSSPHSY-NH2) | N | – | –
3 | CCCCCCCCCCCCCCCC(=O)N[C@@H](CCCCN)C(=O)N[C@H](C(=O)N[C@@H](CCC(N)=O)C(=O)N[C@@H](CCCCN)C(=O)NC(C)(C)C(=O)N[C@@H](CO)C(=O)N[C@@H](C)C(=O)N1CCC[C@H]1C(=O)N[C@H](C(=O)N[C@@H](CC(=O)O)C(=O)N1CCC[C@H]1C(=O)N[C@@H](CO)C(=O)N[C@@H](CO)C(=O)N1CCC[C@H]1C(=O)N[C@@H](Cc1c[nH]cn1)C(=O)N[C@@H](CO)C(=O)N[C@@H](Cc1ccc(O)cc1)C(N)=O)C(C)C)C(C)C [ADE651A] (Palmitoyl-KVQK[Aib]SAPVDPSSPHSY-NH2) | N | – | –
4 | CCCCCCCCCCCCCCCC(=O)N[C@@H](CCCCN)C(=O)N[C@H](C(=O)N[C@@H](CCC(N)=O)C(=O)N[C@@H](CCCCN)C(=O)N1C[C@H](O)C[C@H]1C(=O)N[C@@H](CO)C(=O)N[C@@H](C)C(=O)N1CCC[C@H]1C(=O)N[C@H](C(=O)N[C@@H](CC(=O)O)C(=O)N1CCC[C@H]1C(=O)N[C@@H](CO)C(=O)N[C@@H](CO)C(=O)N1CCC[C@H]1C(=O)N[C@@H](Cc1c[nH]cn1)C(=O)N[C@@H](CO)C(=O)N[C@@H](Cc1ccc(O)cc1)C(N)=O)C(C)C)C(C)C [ADE651E] (Palmitoyl-KVQK[Hyp]SAPVDPSSPHSY-NH2) | N | – | –
5 | NCCCC[C@H](NC(=O)[C@@H](Cc1cc(Br)c(O)c(Br)c1)NC(=O)N1CCC(N2Cc3ccccc3NC2=O)CC1)C(=O)N1CCN(c2ccncc2)CC1 [BIBN4096, reference compound] | – | – | 100.5 % of positive control
6 | CCCCCCCCCCCCCCCC(=O)N[C@@H](CCCCN)C(=O)N[C@H](C(=O)N[C@@H](CCC(N)=O)C(=O)N[C@@H](CCCCN)C(=O)NCCCCCC(=O)N[C@@H](CO)C(=O)N[C@@H](C)C(=O)N1CCC[C@H]1C(=O)N[C@H](C(=O)N[C@@H](CC(=O)O)C(=O)N1CCC[C@H]1C(=O)N[C@@H](CO)C(=O)N[C@@H](CO)C(=O)N1CCC[C@H]1C(=O)N[C@@H](Cc1c[nH]cn1)C(=O)N[C@@H](CO)C(=O)N[C@@H](Cc1ccc(O)cc1)C(N)=O)C(C)C)C(C)C [ADE651B] (Palmitoyl-KVQK[Ahx]SAPVDPSSPHSY-NH2) | N | – | –
7 | CCCCCCCCCCCCCCCC(=O)N[C@@H](CCCCN)C(=O)N[C@H](C(=O)N[C@@H](CCC(N)=O)C(=O)N[C@@H](CCCCN)C(=O)N[C@@H](CCN)C(=O)N[C@@H](CO)C(=O)N[C@@H](C)C(=O)N1CCC[C@H]1C(=O)N[C@H](C(=O)N[C@@H](CC(=O)O)C(=O)N1CCC[C@H]1C(=O)N[C@@H](CO)C(=O)N[C@@H](CO)C(=O)N1CCC[C@H]1C(=O)N[C@@H](Cc1c[nH]cn1)C(=O)N[C@@H](CO)C(=O)N[C@@H](Cc1ccc(O)cc1)C(N)=O)C(C)C)C(C)C [ADE651K] (Palmitoyl-KVQK[Dab]SAPVDPSSPHSY-NH2) | N | – | –
8 | CCCCCCCCCCCCCCCC(=O)N[C@@H](CCCCN)C(=O)N[C@H](C(=O)N[C@@H](CCC(N)=O)C(=O)N[C@@H](CCCCN)C(=O)N[C@@H](CCCC)C(=O)N[C@@H](CO)C(=O)N[C@@H](C)C(=O)N1CCC[C@H]1C(=O)N[C@H](C(=O)N[C@@H](CC(=O)O)C(=O)N1CCC[C@H]1C(=O)N[C@@H](CO)C(=O)N[C@@H](CO)C(=O)N1CCC[C@H]1C(=O)N[C@@H](Cc1c[nH]cn1)C(=O)N[C@@H](CO)C(=O)N[C@@H](Cc1ccc(O)cc1)C(N)=O)C(C)C)C(C)C [ADE651F] | N | – | –
9 | CCCCCCCCCCCCCCCC(=O)N[C@@H](CCCCN)C(=O)N[C@H](C(=O)N[C@@H](CCC(N)=O)C(=O)N[C@@H](CCCCN)C(=O)N[C@@H](CCCN)C(=O)N[C@@H](CO)C(=O)N[C@@H](C)C(=O)N1CCC[C@H]1C(=O)N[C@H](C(=O)N[C@@H](CC(=O)O)C(=O)N1CCC[C@H]1C(=O)N[C@@H](CO)C(=O)N[C@@H](CO)C(=O)N1CCC[C@H]1C(=O)N[C@@H](Cc1c[nH]cn1)C(=O)N[C@@H](CO)C(=O)N[C@@H](Cc1ccc(O)cc1)C(N)=O)C(C)C)C(C)C [ADE651G] (Palmitoyl-KVQK[Orn]SAPVDPSSPHSY-NH2) | N | – | –
10 | CCCCCCCCCCCCCCCC(=O)N[C@@H](CCCCN)C(=O)N[C@H](C(=O)N[C@@H](CCC(N)=O)C(=O)N[C@@H](CCCCNC(=O)CCS)C(=O)N[C@@H](CC(C)C)C(=O)N[C@@H](CO)C(=O)N[C@@H](C)C(=O)N1CCC[C@H]1C(=O)N[C@H](C(=O)N[C@@H](CC(=O)O)C(=O)N1CCC[C@H]1C(=O)N[C@@H](CO)C(=O)N[C@@H](CO)C(=O)N1CCC[C@H]1C(=O)N[C@@H](Cc1c[nH]cn1)C(=O)N[C@@H](CO)C(=O)N[C@@H](Cc1ccc(O)cc1)C(N)=O)C(C)C)C(C)C [ADE651O] | Y | – | –
11 | CCCCCCCCCCCCCCCC(=O)N[C@@H](CCCCN)C(=O)N[C@H](C(=O)N[C@@H](CCC(N)=O)C(=O)N[C@@H](CCCCN)C(=O)N[C@@H](CCCNC(N)=O)C(=O)N[C@@H](CO)C(=O)N[C@@H](C)C(=O)N1CCC[C@H]1C(=O)N[C@H](C(=O)N[C@@H](CC(=O)O)C(=O)N1CCC[C@H]1C(=O)N[C@@H](CO)C(=O)N[C@@H](CO)C(=O)N1CCC[C@H]1C(=O)N[C@@H](Cc1c[nH]cn1)C(=O)N[C@@H](CO)C(=O)N[C@@H](Cc1ccc(O)cc1)C(N)=O)C(C)C)C(C)C [ADE651D] (Palmitoyl-KVQK[Cit]SAPVDPSSPHSY-NH2) | N | – | –
12 | CCCCCCCCCCCCCCCC(=O)N[C@@H](CCCCN)C(=O)N[C@H](C(=O)N[C@@H](CCC(N)=O)C(=O)N[C@@H](CCCCNC)C(=O)N[C@@H](CC(C)C)C(=O)N[C@@H](CO)C(=O)N[C@@H](C)C(=O)N1CCC[C@H]1C(=O)N[C@H](C(=O)N[C@@H](CC(=O)O)C(=O)N1CCC[C@H]1C(=O)N[C@@H](CO)C(=O)N[C@@H](CO)C(=O)N1CCC[C@H]1C(=O)N[C@@H](Cc1c[nH]cn1)C(=O)N[C@@H](CO)C(=O)N[C@@H](Cc1ccc(O)cc1)C(N)=O)C(C)C)C(C)C [ADE651L] | Y | – | –
13 | CCCCCCCCCCCCCCCC(=O)N[C@@H](CCCCN)C(=O)N[C@H](C(=O)N[C@@H](CCC(N)=O)C(=O)N[C@@H](CCCCN)C(=O)NCCC(=O)N[C@@H](CO)C(=O)N[C@@H](C)C(=O)N1CCC[C@H]1C(=O)N[C@H](C(=O)N[C@@H](CC(=O)O)C(=O)N1CCC[C@H]1C(=O)N[C@@H](CO)C(=O)N[C@@H](CO)C(=O)N1CCC[C@H]1C(=O)N[C@@H](Cc1c[nH]cn1)C(=O)N[C@@H](CO)C(=O)N[C@@H](Cc1ccc(O)cc1)C(N)=O)C(C)C)C(C)C [ADE651P] (Palmitoyl-KVQK[βAla]SAPVDPSSPHSY-NH2) | N | – | –
